Publication PMC4229301, “A Polymeric Prodrug of 5-Fluorouracil-1-Acetic Acid Using a Multi-Hydroxyl Polyethylene Glycol Derivative as the Drug Carrier” (PLoS ONE, 2014)

Tests used:
[1] = test system: Kunming mice; experiment: Safety evaluation: myelosuppression (white blood cell and blood platelet counts) after intravenous administration; details: i.v., same doses, n=12
Description: All animals were fed on a light and dark cycle and allowed free access to standard chow and water. Temperature and relative humidity were kept at 25°C and 50%, respectively. After experiment, mice were sacrificed by neck dislocation, and all efforts were made to minimize suffering. […] The control group was given physiological saline (0.009 g/ml). Zero point one mL blood samples were collected at prearranged time intervals (one day before injection and 1, 4, 7, and 10 days post injection).

[2] = In vivo distribution in H22 tumor-bearing mice; design: species or system Kunming mice
Description: The tumor-bearing animal model was established by subcutaneous injection of H22 cells (1×10^7 cells/ml, in 0.2 ml saline) into the right axillary region of Kunming mice. The sizes of tumors were monitored 7 days after inoculation and the tumor volumes were calculated as described in the “Antitumor activity in tumor-bearing mice” section. The mice with tumor volumes between 0.35 cm^3 and 0.65 cm^3 were randomized into two groups (n = 30). […] The mice were exsanguinated and sacrificed by neck dislocation at predetermined time points. Tissues including heart, liver, spleen, lung, kidney, brain and tumor were collected, washed with physiological saline, weighed and homogenized with two fold concentrated physiological saline. The samples of the test group were treated as hydrolyzed samples as described in the section “In vitro drug release”, whereas those of the control group were treated as unhydrolyzed samples. All data are presented as the concentration of 5-FA.
(§1) The data of pharmacokinetics and in vivo distribution study were processed using the Drug and Statistics Software 2.0 (DAS 2.0, Shanghai, China). The statistical analysis of the samples was performed by using one-way ANOVA and Student's t-test. p-values <0.05 were considered as statistically different.

[3] = Pharmacokinetics study after i.v. injection in rats; type: in vivo, Wistar rats
Description: Male Wistar rats were purchased from The laboratory Animal Center of Sichuan University. 12 Wistar rats (body weight: 200 g±20 g) were divided into two groups randomly (n = 6). […] The blood samples were collected into heparinized centrifuge tubes at predetermined intervals (see Table S2 in file SI) by retro-orbital puncture, and the plasma was separated by centrifugation. Each plasma sample of the test groups was divided into two portions. They were treated as hydrolyzed and unhydrolyzed as described in the “In vitro drug release” section. The two portions of the samples were analyzed by HPLC to determine the plasma concentrations of released 5-FA and total 5-FA of the conjugate whereas the plasma samples of the control group were treated as unhydrolyzed samples.
as §1

[4] = male, Wistar, rat, plasma, iv, 20 mg/kg
[5] = rats, i.v., 20 mg/kg 5-FA or 189 mg/kg 5-FA-PAE

In the case of O=C(O)Cn1cc(F)c(=O)[nH]c1=O [5-FA, 5-fluorouracil-1-acetic acid], the “number of blood platelets” value ([1]; 1 day after injection) is reported as 945 ± 139 ×10^9/L, the “number of blood platelets” value ([1]; 4 days after injection) is reported as 781 ± 250 ×10^9/L and the “number of white blood cells” value ([1]; 4 days after injection) is reported as 10.32±5.71 ×10^9/L. The “number of blood platelets” value ([1]; 7 days after injection) was 822 ± 198 ×10^9/L, the “number of white blood cells” value ([1]; 7 days after injection) was 10.24±4.50 ×10^9/L and the “number of blood platelets” value ([1]; 10 days after injection) was 860 ± 188 ×10^9/L. The “number of white blood cells” value ([1]; 10 days after injection) was 11.55±3.62 ×10^9/L, the “concentration in tumor over time” value ([2]; H22 tumor-bearing mice, i.v. 20 mg/kg 5-FA) was “undetectable after 6 h” and the concentration at 15 min ([2]; Kunming, mouse, tumor, iv, 20 mg/kg) was 4860 ± 1620 ng/g. It also gave a Kp at 4 h ([2]; Kunming, mouse, tumor/plasma, iv, 20 mg/kg, H22 tumor-bearing mice, i.v., 4 h after injection, read-out: ratio of tumor/plasma concentration) of 1.99, an AUC(0-inf) [3, 4] of 21600 ± 4470 ng·h/mL and an AUC(0-t) [3, 4] of 21400 ± 4360 ng·h/mL. It also gave a Cmax [3, 4] of 74.9 ± 10.2 µg/mL, a Tmax [3, 4] of 1 min and an MRT last ([3]; male, Wistar, rat, plasma, iv, 20 mg/kg, read-out: MRT 0-t) of 40.7 ± 8.52 min. It also gave an MRT inf ([3]; male, Wistar, rat, plasma, iv, 20 mg/kg, read-out: MRT 0-∞) of 47.7 ± 14.4 min, a Vd ([3]; male, Wistar, rat, plasma, iv, 20 mg/kg, read-out: V (apparent volume of distribution)) of 2.11 ± 0.62 L/kg and a half-life ([3]; male, Wistar, rat, plasma, iv, 20 mg/kg, read-out: t1/2 (elimination half life) (converted)) of 92.3 ± 25.1 min. The concentration at 1 min ([3]; male, Wistar, rat, plasma, iv, rats, i.v. 20 mg/kg 5-FA, 1 min) was 79.9 ± 10.2 µg/mL, the concentration at 5 min ([3]; male, Wistar, rat, plasma, iv, rats, i.v. 20 mg/kg 5-FA, 5 min) was 79.9 ± 2.86 µg/mL and the concentration at 10 min ([3]; male, Wistar, rat, plasma, iv, rats, i.v. 20 mg/kg 5-FA, 10 min) was 79.9 ± 3.52 µg/mL. For the same molecule, the concentration at 15 min ([3]; male, Wistar, rat, plasma, iv, rats, i.v. 20 mg/kg 5-FA, 15 min) was 79.9 ± 5.07 µg/mL, the concentration at 30 min ([3]; male, Wistar, rat, plasma, iv, rats, i.v. 20 mg/kg 5-FA, 30 min) was 79.9 ± 2.8 µg/mL and the concentration at 1 h ([3]; male, Wistar, rat, plasma, iv, rats, i.v. 20 mg/kg 5-FA, 1 h) was 79.9 ± 0.986 µg/mL. For the same molecule, the concentration at 2 h ([3]; male, Wistar, rat, plasma, iv, rats, i.v. 20 mg/kg 5-FA, 2 h) was 79.9 ± 0.814 µg/mL, the “time of complete removal from the blood circulation after administration” value ([3]; rats, i.v.) was 6∼8 h and the “Plasma concentration, 5-FA” value ([3]; rats, i.v. 20 mg/kg 5-FA, 10 h) was “-”. For the same molecule, the “Plasma concentration, 5-FA” value ([3]; rats, i.v. 20 mg/kg 5-FA, 24 h) was “-”, the “Cl (clearance)” value [3, 5] was 0.967 ± 0.259 mL/g/h and the “VRT 0-t” value [3, 5] was 1.519±0.326 h^2. For the same molecule, the “VRT 0-∞” value [3, 5] was 2.703±1.558 h^2.

With O=c1[nH]cc(F)c(=O)[nH]1 [5-Fu, 5-fluorouracil] the “number of blood platelets” value ([1]; 1 day after injection) was 792 ± 122 ×10^9/L, the “number of blood platelets” value ([1]; 4 days after injection) was 819 ± 211 ×10^9/L and the “number of white blood cells” value ([1]; 4 days after injection) was 6.84±5.76 ×10^9/L. For the same molecule, the “number of blood platelets” value ([1]; 7 days after injection) was 858 ± 254 ×10^9/L, the “number of white blood cells” value ([1]; 7 days after injection) was 7.34±2.82 ×10^9/L and the “number of blood platelets” value ([1]; 10 days after injection) was 863 ± 382 ×10^9/L. For the same molecule, the “number of white blood cells” value ([1]; 10 days after injection) was 8.59±2.39 ×10^9/L.
